# Data as given in PubChem BioAssay AID248 (DTP/NCI, 2004).
# Several values for one entry are separate records, joined by “and”; a condition that tells them apart may be missing. Equal values may be shown once. Inconclusive results and toxic doses are left out.
# Test system: L1210 leukemia ip in BDF1 mice, survival T/C
# Assay: NCI In Vivo Anticancer Drug Screen. Data for tumor model L1210 Leukemia (intraperitoneal) in B6D2F1 (BDF1) mice
# Conditions: endpoint: mean survival time, higher = longer survival
# In short: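 Value reflects the ratio of survival in compound-treated mice to survival in vehicle-treated controls, with both groups carrying the same transplanted tumor.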
# [1] = dose: 100.0 mg/kg/injection, schedule: Q01DX001 (ip), vehicle: Klucel (hydroxypropylcellulose) (HPC)
# [2] = dose: 200.0 mg/kg/injection, schedule: Q01DX001 (ip), vehicle: Klucel (hydroxypropylcellulose) (HPC)
# [3] = dose: 100.0 mg/kg/injection, schedule: Q01DX009 (ip), vehicle: saline with Tween-80
# [4] = dose: 200.0 mg/kg/injection, schedule: Q01DX009 (ip), vehicle: saline with Tween-80
# [5] = dose: 400.0 mg/kg/injection, schedule: Q01DX009 (ip), vehicle: saline with Tween-80
# [6] = dose: 50.0 mg/kg/injection, schedule: Q01DX009 (ip), vehicle: saline with Tween-80
# [7] = dose: 100.0 mg/kg/injection, schedule: Q04DX003 (ip), vehicle: saline with Tween-80
# [8] = dose: 200.0 mg/kg/injection, schedule: Q04DX003 (ip), vehicle: saline with Tween-80
# [9] = dose: 200.0 mg/kg/injection, schedule: Q01DX001 (ip), vehicle: carboxymethylcellulose (CMC)
# [10] = dose: 400.0 mg/kg/injection, schedule: Q01DX001 (ip), vehicle: carboxymethylcellulose (CMC)
# [11] = dose: 100.0 mg/kg/injection, schedule: Q04DX002 (ip), vehicle: Klucel (hydroxypropylcellulose) (HPC)
# [12] = dose: 200.0 mg/kg/injection, schedule: Q04DX002 (ip), vehicle: Klucel (hydroxypropylcellulose) (HPC)
# [13] = dose: 400.0 mg/kg/injection, schedule: Q04DX002 (ip), vehicle: Klucel (hydroxypropylcellulose) (HPC)
smiles,measurement,setting,value
CCN(CC)CCOc1cccc(O)c1,T/C,"dose: 25.0 mg/kg/injection, schedule: Q04DX003 (ip), vehicle: Klucel (hydroxypropylcellulose) (HPC)",94 % of control
same,T/C,"dose: 50.0 mg/kg/injection, schedule: Q04DX003 (ip), vehicle: Klucel (hydroxypropylcellulose) (HPC)",97 % of control
same,T/C,[1],93 % of control
same,T/C,"dose: 100.0 mg/kg/injection, schedule: Q04DX003 (ip), vehicle: Klucel (hydroxypropylcellulose) (HPC)",100 % of control and 107 % of control
same,T/C,[2],91 % of control
CC(=O)COc1ccccc1-c1ccccc1,T/C,[3],97 % of control
same,T/C,[4],101 % of control
same,T/C,[5],100 % of control
CC(=O)NC1(C(=O)O)CSSC1,T/C,"dose: 50.0 mg/kg/injection, schedule: Q01DX005 (ip), vehicle: saline",102 % of control
same,T/C,"dose: 100.0 mg/kg/injection, schedule: Q01DX005 (ip), vehicle: saline",100 % of control
same,T/C,"dose: 200.0 mg/kg/injection, schedule: Q01DX005 (ip), vehicle: saline",93 % of control
same,T/C,"dose: 400.0 mg/kg/injection, schedule: Q01DX005 (ip), vehicle: saline",102 % of control
C[NH-].C[NH-].[Cl][Pt+2][Cl],T/C,"dose: 0.38 mg/kg/injection, schedule: Q03HX024 (ip), vehicle: water",111 % of control
same,T/C,"dose: 0.75 mg/kg/injection, schedule: Q03HX024 (ip), vehicle: water",109 % of control
same,T/C,"dose: 1.0 mg/kg/injection, schedule: Q01DX009 (ip), vehicle: other",108 % of control
same,T/C,"dose: 1.5 mg/kg/injection, schedule: Q03HX024 (ip), vehicle: water",107 % of control
same,T/C,"dose: 1.56 mg/kg/injection, schedule: Q03HX008 (ip), vehicle: water",106 % of control
same,T/C,"dose: 2.0 mg/kg/injection, schedule: Q01DX001 (ip), vehicle: other",108 % of control
same,T/C,"dose: 2.0 mg/kg/injection, schedule: Q01DX009 (ip), vehicle: other",122 % of control
same,T/C,"dose: 2.5 mg/kg/injection, schedule: Q01DX009 (ip), vehicle: water",110 % of control
same,T/C,"dose: 2.6 mg/kg/injection, schedule: Q01DX009 (ip), vehicle: saline with Tween-80",113 % of control
same,T/C,"dose: 3.0 mg/kg/injection, schedule: Q04DX003 (ip), vehicle: water",116 % of control
same,T/C,"dose: 3.13 mg/kg/injection, schedule: Q03HX008 (ip), vehicle: water",115 % of control
same,T/C,"dose: 4.0 mg/kg/injection, schedule: Q01DX001 (ip), vehicle: other",95 % of control
same,T/C,"dose: 4.0 mg/kg/injection, schedule: Q01DX009 (ip), vehicle: other",116 % of control
same,T/C,"dose: 4.0 mg/kg/injection, schedule: Q01DX009 (ip), vehicle: saline with Tween-80",124 % of control
same,T/C,"dose: 5.0 mg/kg/injection, schedule: Q04DX003 (ip), vehicle: saline with Tween-80",115 % of control and 120 % of control
same,T/C,"dose: 6.0 mg/kg/injection, schedule: Q04DX003 (ip), vehicle: water",123 % of control
same,T/C,"dose: 8.0 mg/kg/injection, schedule: Q01DX001 (ip), vehicle: other",105 % of control
same,T/C,"dose: 8.0 mg/kg/injection, schedule: Q04DX003 (ip), vehicle: saline with Tween-80",123 % of control
same,T/C,"dose: 9.0 mg/kg/injection, schedule: Q01DX009 (ip), vehicle: saline with Tween-80",108 % of control
same,T/C,"dose: 12.0 mg/kg/injection, schedule: Q04DX003 (ip), vehicle: saline with Tween-80",164 % of control
same,T/C,"dose: 12.5 mg/kg/injection, schedule: Q01DX009 (ip), vehicle: saline with Tween-80",98 % of control and 90 % of control
same,T/C,"dose: 16.0 mg/kg/injection, schedule: Q01DX001 (ip), vehicle: other",123 % of control
same,T/C,"dose: 16.0 mg/kg/injection, schedule: Q01DX009 (ip), vehicle: other",90 % of control
same,T/C,"dose: 25.0 mg/kg/injection, schedule: Q01DX001 (ip), vehicle: water",120 % of control
same,T/C,"dose: 32.0 mg/kg/injection, schedule: Q01DX001 (ip), vehicle: other",119 % of control
same,T/C,"dose: 50.0 mg/kg/injection, schedule: Q04DX003 (ip), vehicle: saline with Tween-80",88 % of control
CCOC(=O)C(=CNc1ccccc1OC)C(=O)OCC,T/C,[6],95 % of control
same,T/C,[3],102 % of control
same,T/C,[7],98 % of control
same,T/C,[4],106 % of control
same,T/C,[8],110 % of control
same,T/C,[5],98 % of control
same,T/C,"dose: 400.0 mg/kg/injection, schedule: Q04DX003 (ip), vehicle: saline with Tween-80",102 % of control
CC(=O)N(C(C)=O)c1ccccc1,T/C,[3],105 % of control
same,T/C,[4],107 % of control
same,T/C,[5],115 % of control
CCCCCCCCCCCCN=Cc1cc(Cl)ccc1O,T/C,"dose: 222.0 mg/kg/injection, schedule: Q01DX Z (ip), vehicle: methylcellulose (MC)",95 % of control
same,T/C,"dose: 333.0 mg/kg/injection, schedule: Q01DX Z (ip), vehicle: methylcellulose (MC)",102 % of control
same,T/C,"dose: 500.0 mg/kg/injection, schedule: Q01DX Z (ip), vehicle: methylcellulose (MC)",102 % of control
CCCCCCCCOB(OCCCCCCCC)OCCCCCCCC,T/C,"dose: 50.0 mg/kg/injection, schedule: Q01DX001 (ip), vehicle: carboxymethylcellulose (CMC)",96 % of control
same,T/C,"dose: 100.0 mg/kg/injection, schedule: Q01DX001 (ip), vehicle: carboxymethylcellulose (CMC)",100 % of control
same,T/C,[3],96 % of control
same,T/C,[7],98 % of control
same,T/C,[9],96 % of control
same,T/C,[4],95 % of control
same,T/C,[8],94 % of control
same,T/C,[10],100 % of control
CCCCCCCCCCCCCCCCCCc1cc(C)ccc1C,T/C,"dose: 100.0 mg/kg/injection, schedule: Q01DX001 (ip), vehicle: other",107 % of control
same,T/C,"dose: 200.0 mg/kg/injection, schedule: Q01DX001 (ip), vehicle: other",90 % of control
same,T/C,"dose: 400.0 mg/kg/injection, schedule: Q01DX001 (ip), vehicle: other",104 % of control
CC(=O)OC1CCC2(C)C(=CCC3C2CCC2(C)C3CCC2(O)C(C)=O)C1 (centres undefined),T/C,[1],101 % of control
same,T/C,[2],97 % of control
same,T/C,"dose: 400.0 mg/kg/injection, schedule: Q01DX001 (ip), vehicle: Klucel (hydroxypropylcellulose) (HPC)",98 % of control
CCCCOc1ccc(/C=N/NC(=O)CNC(=O)Nc2cccc([N+](=O)[O-])c2)cc1,T/C,[6],96 % of control
same,T/C,[3],96 % of control
same,T/C,[4],93 % of control
O=C(Nc1cc(NC(=O)Nc2cccc(C3=NCCN3)c2)cc(C(=O)Nc2ccccc2)c1)Nc1cccc(C2=NCCN2)c1,T/C,"dose: 15.0 mg/kg/injection, schedule: Q01DX Z (ip), vehicle: carboxymethylcellulose (CMC)",94 % of control
same,T/C,"dose: 30.0 mg/kg/injection, schedule: Q01DX Z (ip), vehicle: carboxymethylcellulose (CMC)",103 % of control
same,T/C,"dose: 60.0 mg/kg/injection, schedule: Q01DX Z (ip), vehicle: carboxymethylcellulose (CMC)",97 % of control
same,T/C,"dose: 120.0 mg/kg/injection, schedule: Q01DX Z (ip), vehicle: carboxymethylcellulose (CMC)",107 % of control and 91 % of control
same,T/C,"dose: 240.0 mg/kg/injection, schedule: Q01DX Z (ip), vehicle: carboxymethylcellulose (CMC)",104 % of control
Nc1ncc(C=Nc2ccc(C(=O)O)cc2)c(N)n1,T/C,[9],94 % of control
same,T/C,[10],102 % of control
ClC12c3ccccc3C(c3ccccc31)C1(Cl)c3ccccc3C2c2ccccc21,T/C,[11],102 % of control
same,T/C,[12],109 % of control
same,T/C,[13],106 % of control
CCOC(=O)CNCCN(CC)CC,T/C,"dose: 100.0 mg/kg/injection, schedule: Q01DX001 (ip), vehicle: saline with Tween-80",101 % of control
same,T/C,"dose: 200.0 mg/kg/injection, schedule: Q01DX001 (ip), vehicle: saline with Tween-80",111 % of control
same,T/C,"dose: 400.0 mg/kg/injection, schedule: Q01DX001 (ip), vehicle: saline with Tween-80",94 % of control
O=S(=O)(NCCBr)c1ccccc1,T/C,"dose: 75.0 mg/kg/injection, schedule: Q01DX001 (ip), vehicle: carboxymethylcellulose (CMC)",101 % of control
same,T/C,"dose: 150.0 mg/kg/injection, schedule: Q01DX001 (ip), vehicle: carboxymethylcellulose (CMC)",114 % of control
same,T/C,"dose: 300.0 mg/kg/injection, schedule: Q01DX001 (ip), vehicle: carboxymethylcellulose (CMC)",108 % of control
c1ccc(NCCOc2ccccc2)cc1,T/C,"dose: 100.0 mg/kg/injection, schedule: Q01DX009 (ip), vehicle: Klucel (hydroxypropylcellulose) (HPC)",108 % of control
same,T/C,[11],114 % of control
same,T/C,"dose: 200.0 mg/kg/injection, schedule: Q01DX009 (ip), vehicle: Klucel (hydroxypropylcellulose) (HPC)",94 % of control
same,T/C,[12],98 % of control
same,T/C,[13],88 % of control
